In patent US7910591B2, “Piperazine derivatives of alkyl oxindoles” (EGIS Gyogyszergyar NYRT., priority 2004, dated 2011):
Counter-ions that a name gives are not always drawn.

Key:
5-HT7 receptor = molecular target: T1, 5-HT7 receptor (Homo sapiens, UniProt P34969); assay: 5-HT7 receptor binding; settings: human cloned receptors; ligand 3H-lizergic acid diethylamide (LSD) 1.0 nM; non-specific binding clozapine 25 μM
T1 construct: expressed in transfected cells
Procedure: (§1) For the determination of 5-HT7 receptor affinity human cloned receptors were used. The α1 receptor affinities were determined from isolated frontal cortex preparation of male Wistar rats weighing 120-200 g. The protein contents of membrane preparations were determined by the method of Lowry (1951).
(§2) In the course of 5-HT7 and α1 receptor binding studies the ligands were ^3H-lizergic acid diethylamide (LSD) (1.0 nM) and ^3H-prazosine (0.3 nM). Clozapine (25 μM) and prazosine (1 μM) were used for the measurement of non-specific bindings. The α1 receptor binding studies were carried out according to the methods of Reader, and Greengrass (Reader, T. A., Briere, R., Grondin, L.: J. Neural Transm. 68, p. 79 (1987); Greengrass, P., Brenner, R.: Eur. J. Pharmacol. 55, p. 323 (1979)).
(§3) IC50 is the concentration where the difference between the whole binding and non-specific binding is 50%. The compounds with an IC50 value smaller than […] were considered effective in this test.

α1 receptor = α1 receptor binding; design: species or system rat; settings: isolated frontal cortex preparation of male Wistar rats; ligand 3H-prazosine 0.3 nM; non-specific binding prazosine 1 μM
Procedure: as §1, §2, §3

T1 sequence (P34969 whole entry): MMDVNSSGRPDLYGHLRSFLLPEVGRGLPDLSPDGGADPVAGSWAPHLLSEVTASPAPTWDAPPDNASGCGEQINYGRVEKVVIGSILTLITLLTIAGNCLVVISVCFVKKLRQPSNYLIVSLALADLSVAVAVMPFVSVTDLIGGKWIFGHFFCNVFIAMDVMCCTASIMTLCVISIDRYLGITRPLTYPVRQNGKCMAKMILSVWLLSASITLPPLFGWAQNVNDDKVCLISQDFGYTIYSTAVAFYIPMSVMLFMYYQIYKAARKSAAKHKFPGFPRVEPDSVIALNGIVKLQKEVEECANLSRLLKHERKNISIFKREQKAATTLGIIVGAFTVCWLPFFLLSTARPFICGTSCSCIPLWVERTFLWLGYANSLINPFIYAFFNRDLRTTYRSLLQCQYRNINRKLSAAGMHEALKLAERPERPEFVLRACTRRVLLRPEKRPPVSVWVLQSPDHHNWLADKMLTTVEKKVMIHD

Structure (SMILES): COc1ccc(Cl)cc1N1CCN(CCCCC2C(=O)Nc3ccccc32)CC1 (stereo not shown) (as salt: hydrochloride) [Example 11, 3-{4-[4-(5-Chloro-2-methoxyphenyl)-piperazine-1-yl]-butyl}-1,3-dihydro-2H-indol-2-one Monohydrochloride]
- melting point: 91 to 94 °C

Structure (SMILES): O=C1Nc2ccccc2C1CCCCN1CCN(c2cc(Cl)cc3c2OCCO3)CC1 (stereo not shown) (as salt: oxalate) [Example 6, 3-{4-[4-(7-Chloro-2,3-dihydrobenzo[1,4]dioxin-5-yl)-piperazine-1-yl]-butyl}-1,3-dihydro-2H-indol-2-one Monooxalate]
- melting point: 236 to 238 °C

Structure (SMILES): COc1cccc(N2CCN(CCCCC3C(=O)Nc4ccccc43)CC2)c1 (stereo not shown) (as salt: oxalate) [Example 9, 3-{4-[4-(3-Methoxyphenyl)-piperazine-1-yl]-butyl}-1,3-dihydro-2H-indol-2-one Monooxalate]
- melting point: 208 to 211 °C

Structure (SMILES): COc1cccc(N2CCN(CCCCC3C(=O)Nc4ccc(F)cc43)CC2)c1 (stereo not shown) (as salt: oxalate) [Example 12, 5-Fluoro-3-{4-[4-3-methoxyphenyl)-piperazine-1-yl]-butyl}-1,3-dihydro-2H-indol-2-one Monooxalate]
- melting point: 211 to 214 °C

Structure (SMILES): O=C1Nc2ccccc2C1CCCCN1CCN(c2ccccn2)CC1 (stereo not shown) [Example 5, 3-[4-(4-Pyridin-2-yl-piperazine-1-yl)-butyl]-1,3-dihydro-2H-indol-2-one]
- IC50 (5-HT7 receptor): < 100 nM
- melting point: 131 to 132 °C
- IC50 (α1 receptor): < 100 nM

Structure (SMILES): O=C1Nc2ccccc2C1CCCCN1CCN(c2cc(Cl)cc3c2OCCO3)CC1 (stereo not shown) [Example 6, 3-{4-[4-(7-Chloro-2,3-dihydrobenzo[1,4]dioxin-5-yl)-piperazine-1-yl]-butyl}-1,3-dihydro-2H-indol-2-one Monooxalate]
- IC50 (5-HT7 receptor): < 100 nM

Structure (SMILES): O=C1Nc2ccc(F)cc2C1CCCCN1CCN(c2ccccn2)CC1 (stereo not shown) [Example 7, 5-Fluoro-3-[4-(4-pyridin-2-yl-piperazine-1-yl)-butyl]-1,3-dihydro-2H-indol-2-one]
- melting point: 132 to 134 °C

Structure (SMILES): O=C1Nc2cc(F)ccc2C1CCCCN1CCN(c2ccccn2)CC1 (stereo not shown) [Example 8, 6-Fluoro-3-[4-(4-pyridin-2-yl-piperazine-1-yl)-butyl]-1,3-dihydro-2H-indol-2-one]
- IC50 (5-HT7 receptor): < 100 nM
- melting point: 136 to 137 °C
- IC50 (α1 receptor): < 100 nM

Structure (SMILES): COc1cccc(N2CCN(CCCCC3C(=O)Nc4ccccc43)CC2)c1 (stereo not shown) [Example 9, 3-{4-[4-(3-Methoxyphenyl)-piperazine-1-yl]-butyl}-1,3-dihydro-2H-indol-2-one Monooxalate]
- IC50 (5-HT7 receptor): < 100 nM

Structure (SMILES): O=C1Nc2ccc(F)cc2C1CCCCN1CCN(c2cc(Cl)cc3c2OCCO3)CC1 (stereo not shown) [Example 10, 3-{4-[4(7-Chloro-2,3-dihydrobenzo[1,4]dioxin-5-yl)piperazine-1-yl]-butyl}-5-fluoro-1,3-dihydro-2H-indol-2-one]
- IC50 (5-HT7 receptor): < 100 nM
- melting point: 146 to 148 °C
- IC50 (α1 receptor): < 50 nM

Structure (SMILES): COc1ccc(Cl)cc1N1CCN(CCCCC2C(=O)Nc3ccccc32)CC1 (stereo not shown) [Example 11, 3-{4-[4-(5-Chloro-2-methoxyphenyl)-piperazine-1-yl]-butyl}-1,3-dihydro-2H-indol-2-one Monohydrochloride]
- IC50 (5-HT7 receptor): < 100 nM

Structure (SMILES): COc1cccc(N2CCN(CCCCC3C(=O)Nc4ccc(F)cc43)CC2)c1 (stereo not shown) [Example 12, 5-Fluoro-3-{4-[4-3-methoxyphenyl)-piperazine-1-yl]-butyl}-1,3-dihydro-2H-indol-2-one Monooxalate]
- IC50 (5-HT7 receptor): < 100 nM
- IC50 (α1 receptor): < 100 nM
